The values below come from patent publication US9844541B2, “Methods of modulating follicle stimulating hormone activity” (Strasspharma LLC, priority 2012, dated 2017).

Structures are written as SMILES.

The subject of data set [1] is follicle stimulating hormone (FSH) receptor (FSH-R). Nature of the data set: Conclusion from endocrine profile: effect on FSH receptor signaling. The data set is classed as in vivo, human. The following applies: concluded from the endocrine profile of one patient. Here is the method:
(§1) Results of reproductive endocrine testing were unique and novel (Table 1). […] elevated FSH and low estrogen level were indicative of a markedly diminished ovarian reserve. However, the presence of preantral follicles and the high AMH value indicated preservation of normal ovarian potential and possible reversal of effect following cessation of therapy.
The endocrine profile of a patient who developed amenorrhea while taking vismodegib (Erivedge™) was determined. […] Secondary amenorrhea, […] of established menses, may result from a variety of conditions, including suppression of the pituitary release of FSH or its hypothalamic control via gonadotropin releasing hormone GnRH. This can be drug induced, but patients presenting in this manner typically have very low or non-detectable gonadotropin (FSH and LH) levels and low estrogen levels. Alternatively, patients with ovarian failure (follicle depletion or menopause) present with high gonadotropins, which may be induced by radiation and/or medication such as chemotherapy.
This led to the conclusion that the cause of amenorrhea in at least this patient treated with visomdegib was due to blockage of the follicle stimulating hormone (FSH) receptor (FSH-R) signaling.

Data set [2] can be described thus: Adverse effects and reproductive examination in patient treated with vismodegib (case study). The conditions noted are these: 150 mg daily. The class given is in vivo, human. From the text: (§2) A nulliparous person with a known diagnosis of Gorlin syndrome (Basal cell carcinoma nevus syndrome: Online Mendelian Inheritance in Man #109400) presented with more than 100 discrete BCC papules on the upper trunk and head, and neck regions. They were diagnosed and treated for lymphoma in 1988, prior to the BCCNS diagnosis and received chemotherapy and radiation therapy to the mantle zone, followed by radical neck dissection. They have remained in remission and their therapy had no apparent effect on menstrual function. They experienced menarche and had regular menses at 30 to 35 day intervals until starting the current therapy. Medications included synthroid 0.15 mg for longstanding hypothyroidism.
(§3) Several of their BCC lesions, while not clinically large, appeared in this area of combined radiation and surgical sclerosis overlying the carotid sheath. Multidisciplinary consultation recommended against further surgery. They commenced therapy with vismodegib (Erivedge™ Genentech, Inc., San Francisco, Calif.) 150 mg daily. […] Shortly thereafter they underwent a reproductive endocrinology evaluation.

For data set [3] the following is noted: oral therapy of BCC; cited from earlier work.
Data set [4] deals with BCC lesions (Gorlin syndrome). The experiment in a line: Clinical response of BCC lesions in patient treated with vismodegib (case study). The class given is in vivo, human. The following applies: 150 mg daily, six months after commencing therapy.
From the text: as §2, §3

The nature of data set [5]: Reproductive endocrine testing of patient treated with vismodegib (case study). The data set is classed as in vivo, human. The following applies: patient on vismodegib 150 mg daily, about six months.
From the text: as §2, §3, §1

Setting [6] is: shortly after six months of therapy.

`CS(=O)(=O)c1ccc(C(=O)Nc2ccc(Cl)c(-c3ccccn3)c2)c(Cl)c1` [vismodegib]: the “Effect on FSH action at FSH-R” value in data set [1] is given as “blocked the action of FSH on the FSH-R”. The Side effects entry in data set [2] (approximately four months after onset of amenorrhea) was “hair loss, slight dysgeusia, and minor leg cramping”. Also, the Menstrual function entry in data set [2] (one month after start) is “became amenorrheic”. Besides, in data set [2] (setting [6]), the “Transvaginal ultrasonography of ovaries” value is “normal ovaries, bilaterally containing multiple pre-antral follicles” and the Vaginal exam findings result is listed as “moderate atrophic vaginal changes suggesting hypoestrogenism”. For the same compound, the Major side effects result in data set [3] is “dysgeusia, alopecia, leg cramping, and gastrointestinal disturbances”. The “Clinical resolution of BCC lesions” value in data set [4] is given as “near complete clinical resolution of all lesions”. Moreover, in data set [5] (follicular phase normal 2-8 IU/L), the “Follicle stimulating hormone (FSH) level” value is 16.0 IU/L. In addition, the Progesterone level in data set [5] (follicular phase range 0.2-1.5) is listed as 0.4. The compound also yielded an Estradiol level in data set [5] (follicular phase range 12.5-166 pg/ml) of 26.9 pg/mL. In addition, in data set [5] (normal range <6.9), the “Anti-mulerian hormone (AMH) level” value is reported as 2.6. For the same compound, the “Leutinizing hormone (LH) level” value in data set [5] (ovulation phase range 14.0-95.6) is reported as 25.3.
